Measured values taken from patent US8937193B2, “Apogossypolone derivatives as anticancer agents” (Sanford-Burnham Medical Research Institute, priority 2009, dated 2015).
Like-named read-outs stand apart in the source and are kept apart here.

What was measured:
[1] = not given; remark: listed apart in the source
[2] = assay type: physicochemical
Excerpt: The chemical stability of solid compounds may be evaluated at room temperature. The stability of the compound was monitored using a combination of HPLC and LCMS.

EC50 values of FIG. 3(B) = conditions: test not named
Bcl-XL [3] = target: T1, Bcl-XL (Homo sapiens (Human), UniProt Q07817); experiment: 1D 1H-NMR binding assay against Bcl-XL; set-up: key: +++: Very Active; ++: Active; +: Mild; −: Weak; conditions: 4-point-rating scale, binding to Bcl-XL
Target sequence in this assay (Q07817 whole entry): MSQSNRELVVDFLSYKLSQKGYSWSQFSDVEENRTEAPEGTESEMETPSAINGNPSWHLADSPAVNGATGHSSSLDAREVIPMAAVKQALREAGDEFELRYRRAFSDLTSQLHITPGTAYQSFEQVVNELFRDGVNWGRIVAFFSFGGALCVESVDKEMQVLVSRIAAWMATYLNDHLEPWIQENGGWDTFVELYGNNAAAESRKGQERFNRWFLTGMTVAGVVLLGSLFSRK

[4] = In vitro plasma stability; conditions: for Plasma Stability (T = 40 mins): Table 4
Excerpt: (§1) To test the pharmacological properties of the compounds of Formula I, the in vitro plasma stability, microsomal stability, and cell membrane permeability may be determined.

Bfl-1 = Bfl-1 (Homo sapiens (Human), UniProt Q16548); experiment: Fluorescence polarization competitive binding assay (FPA), Bfl-1; conditions: displacement of BH3 peptide
Description: (§2) For competitive binding assays, 100 nM GST-BCL-XL ΔTM protein was preincubated with the tested compound at varying concentrations in 47.5 μL PBS (pH=7.4) in 96-well black plates at room temperature for 10 min, then 2.5 μL of 100 nM FITC-labeled Bak BH3 peptide was added to produce a final volume of 50 μL. The wild-type and mutant Bak BH3 peptides were included in each assay plate as positive and negative controls, respectively. After 30 min incubation at room temperature, the polarization values in millipolarization units were measured at excitation/emission wavelengths of 480/535 nm with a multilabel plate reader (PerkinElmer). IC50 was determined by fitting the experimental data to a sigmoidal dose-response nonlinear regression model (SigmaPlot 10.0.1, Systat Software, Inc., San Jose, Calif., USA). Data reported are mean of three independent experiments±standard error (SE). […] Fluorescence polarization was measured after 10 min.

Bcl-2 = Bcl-2 (Homo sapiens (Human), UniProt P10415); experiment: Fluorescence polarization competitive binding assay (FPA), Bcl-2; conditions: displacement of BH3 peptide
Description: as §2

Bcl-XL [5] = target: T1, Bcl-XL; experiment: Isothermal titration calorimetry (ITC), Bcl-XL; assay type: binding
Target sequence in this assay (Q07817 whole entry): as above

Mcl-1 = Mcl-1 (Homo sapiens (Human), UniProt Q07820); experiment: Fluorescence polarization competitive binding assay (FPA), Mcl-1; conditions: displacement of BH3 peptide
Description: as §2

Bcl-XL [6] = target: T1, Bcl-XL; experiment: Fluorescence polarization competitive binding assay (FPA), Bcl-XL; conditions: displacement of BH3 peptide
Target sequence in this assay (Q07817 1-211): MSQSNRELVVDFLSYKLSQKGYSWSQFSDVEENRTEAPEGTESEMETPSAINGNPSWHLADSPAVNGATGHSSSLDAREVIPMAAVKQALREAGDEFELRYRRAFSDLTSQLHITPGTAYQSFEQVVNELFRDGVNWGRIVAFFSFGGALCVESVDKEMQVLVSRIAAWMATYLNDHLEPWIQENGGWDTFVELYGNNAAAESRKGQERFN
Description: as §2

primary CLL cells = experiment: Annexin-V apoptosis assay, primary CLL cells; assay type: cell-based, human
Description: The apoptotic activity of the compounds against RS4;11, BP3 and primary CLL cells was assessed by staining with Annexin V-FITC and propidium iodide (PI). Cells were cultured in RPMI 1640 medium (Mediatech Inc., Herndon, Va. 20171) containing 10% fetal bovine serum (Mediatech Inc., Herndon, Va. 20171) and Penicillin/Streptomycin (Mediatech Inc., Herndon, Va. 20171). […] The percentage of viable cells was determined by FITC-Annexin V- and propidium iodide (PI)-labeling, using an Apoptosis Detection kit (BioVision Inc.), and analyzing stained cells by flow cytometry (FACSort; Bectin-Dickinson, Inc.; Mountain View, Calif.). Cells that were annexin-V-negative and PI-negative were considered viable.

[7] = administered orally (6a); cited from earlier work
PPC-1 xenograft tumors = experiment: PPC-1 tumor xenograft study in nude mice
Description: Female 6-week-old nude mice were purchased from Charles River Laboratories. 5×10^6 PCC-1 cells suspended in 0.2 ml PBS were injected subcutaneously into a flank region of each nude mouse. Tumor bearing mice were size matched (200 mm^3) into treatment and control group, ear tagged, and monitored individually. Tumor volume was measured two to three times weekly by digital calipers (volume=length×width^2/2). All studies use 6 mice per group. […] Control mice received saline. The injections were given three times in first week, twice in second week and once in third week and a total of six injections were administered during the experiment. When all tumors of the control group exceed 2000 mm^3 in volume, the animal experiment was terminated. Tumor growth inhibition ratios (T/C %) were calculated by dividing the average tumor volume in the treatment group by the average tumor volume in the control group.

[8] = In vitro microsomal stability; conditions: Table 4
Excerpt: as §1

H460 cell line = conditions: pan-Bcl-2 family inhibitor from literature; cited from earlier work

Sequence of Bfl-1 (Q16548 whole entry): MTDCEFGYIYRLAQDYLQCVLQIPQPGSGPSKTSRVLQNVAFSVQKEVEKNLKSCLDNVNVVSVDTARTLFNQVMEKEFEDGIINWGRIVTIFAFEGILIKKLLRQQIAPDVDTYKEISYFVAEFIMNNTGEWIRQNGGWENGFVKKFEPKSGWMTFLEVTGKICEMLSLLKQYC
Sequence of Bcl-2 (P10415 whole entry): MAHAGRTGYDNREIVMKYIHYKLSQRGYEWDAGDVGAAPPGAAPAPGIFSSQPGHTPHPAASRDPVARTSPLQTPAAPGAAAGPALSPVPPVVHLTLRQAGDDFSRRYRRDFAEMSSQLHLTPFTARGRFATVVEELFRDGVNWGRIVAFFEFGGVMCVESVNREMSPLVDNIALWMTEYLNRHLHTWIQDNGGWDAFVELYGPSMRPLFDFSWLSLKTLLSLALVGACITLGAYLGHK
Sequence of Mcl-1 (Q07820 whole entry): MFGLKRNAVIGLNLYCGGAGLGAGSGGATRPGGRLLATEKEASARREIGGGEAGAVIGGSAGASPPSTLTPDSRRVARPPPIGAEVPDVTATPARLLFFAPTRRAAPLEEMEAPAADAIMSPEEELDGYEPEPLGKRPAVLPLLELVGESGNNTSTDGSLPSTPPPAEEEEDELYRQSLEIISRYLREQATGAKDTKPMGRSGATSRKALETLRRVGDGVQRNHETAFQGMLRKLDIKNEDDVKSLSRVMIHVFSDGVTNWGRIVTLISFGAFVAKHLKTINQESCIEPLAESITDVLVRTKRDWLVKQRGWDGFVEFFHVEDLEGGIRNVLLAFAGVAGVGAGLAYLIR

| Structure (SMILES) | 1D-1H NMR (Bcl-XL [3]) | Plasma Stability (T = 40 mins) [4] | IC50 (Bfl-1) | IC50 (Bcl-2) | Kd (Bcl-XL [5]) | IC50 (Mcl-1) | IC50 (Bcl-XL [6]) | further results |
| --- | --- | --- | --- | --- | --- | --- | --- | --- |
| Cc1cc2c(C(C)C)c(O)c(O)cc2c(O)c1-c1c(C)cc2c(C(C)C)c(O)c(O)cc2c1O [Apogossypol] |  |  |  |  |  |  |  | degraded after 1 hour incubation in rat microsomal preparations: 36%; degraded after 1 hour incubation in rat plasma [1]: 47%; degraded after 60 days at room temperature [2]: ~80%; EC50 (EC50 values of FIG. 3(B)): 2800 nM |
| CC1=C(C2=C(C)C(=O)c3c(cc(O)c(O)c3C(C)C)C2=O)C(=O)c2cc(O)c(O)c(C(C)C)c2C1=O [Compound 6a, 6,6′,7,7′-tetrahydroxy-5,5′-diisopropyl-3,3′-dimethyl-2,2′-binaphthyl-1,1′,4,4′-tetraone, reference compound] | +++ | 77% | 2170 ± 350 nM | 370 ± 20 nM | 2800 nM | 540 ± 30 nM | 630 ± 20 nM | degraded after 1 hour incubation in rat plasma ([4]; 1 h, rat plasma (preparations)): 23%; LD50 primary CLL samples (primary CLL cells; comparison of 6c with 6a): > 30 µM; LD50 primary CLL samples (primary CLL cells; two primary CLL samples, one day Annexin-V apoptosis assay): > 30 µM; maximum tolerated dose (MTD) [7]: above 240 mg/kg; average body weight losses during the treatment (PPC-1 xenograft tumors; 50 mg/kg i.p.): 9.3%; weight loss in first week (PPC-1 xenograft tumors; 50 mg/kg i.p. three times in first week): ~5% |
| CC1=C(C2=C(C)C(=O)c3c(cc(O)c(O)c3CC(C)C)C2=O)C(=O)c2cc(O)c(O)c(CC(C)C)c2C1=O [Compound 6b, 6,6′,7,7′-tetrahydroxy-5,5′-diisobutyl-3,3′-dimethyl-2,2′-binaphthyl-1,1′,4,4′-tetraone] | +++ | 98% | 1410 ± 110 nM | 250 ± 20 nM | 1500 ± 800 nM | 470 ± 30 nM | 550 ± 60 nM | Microsomal Stability (T = 40 mins) [8]: 69% |
| COC1=CC(c2cc3ccccc3[nH]2)=N/C1=C\c1[nH]c(C)cc1C [GX15-070] |  |  |  |  |  |  |  | IC50 (H460 cell line): 3.85 µM |
